# Experiments:
# [1] = molecular target: T1, recombinant human TTLL4 catalytic domain (Homo sapiens, UniProt Q14679); test: TTLL4 activity immunoassay (anti-glu immuno-detection of glutamylated Nap2 substrate); format: biochemical; conditions: 0.2 millimolar ATP, 1 millimolar glutamic acid, 30° C., 10 minutes, read-out: in vitro TTLL4 IC50
# T1 construct: TTLL4 catalytic domain (composed of residues 561-1199); made in house; host or cells: E. coli
# T1 sequence (Q14679 561-1199): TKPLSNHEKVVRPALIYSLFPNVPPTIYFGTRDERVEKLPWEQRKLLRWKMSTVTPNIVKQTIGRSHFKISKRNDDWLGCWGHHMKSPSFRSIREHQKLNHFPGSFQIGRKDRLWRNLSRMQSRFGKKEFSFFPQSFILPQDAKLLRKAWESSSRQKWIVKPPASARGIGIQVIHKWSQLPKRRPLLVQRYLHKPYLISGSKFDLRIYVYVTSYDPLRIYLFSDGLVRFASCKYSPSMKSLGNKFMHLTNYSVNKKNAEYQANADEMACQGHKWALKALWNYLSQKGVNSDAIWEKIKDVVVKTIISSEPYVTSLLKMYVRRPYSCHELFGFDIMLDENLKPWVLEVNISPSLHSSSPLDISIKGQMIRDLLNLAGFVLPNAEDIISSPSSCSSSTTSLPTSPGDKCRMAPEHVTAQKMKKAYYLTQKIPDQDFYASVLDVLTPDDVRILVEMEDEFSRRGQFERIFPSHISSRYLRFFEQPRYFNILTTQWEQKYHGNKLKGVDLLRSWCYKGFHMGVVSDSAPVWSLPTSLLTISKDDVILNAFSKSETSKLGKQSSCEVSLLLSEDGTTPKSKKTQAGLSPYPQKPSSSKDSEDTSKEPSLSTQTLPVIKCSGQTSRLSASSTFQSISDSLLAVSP
# Description: To measure TTLL4 activity and inhibition by lead compounds, we used an immunoassay. The antibody against mono-glutamate-glutamylation was prepared by immunizing white rabbits with the following peptide: MY {Glu (Glu)} DDEEESEAQGPKC (based on studies published here: doi: 10.1016/S0091-679X (10) 95003-6). The serum was purified by cross-adsorption against a non-glutamylated peptide: MYEDDEEESEAQGPKC. The purified antibody was stored in PBS with 0.02% Preclin 300. The final ELISA titer from the purified antibodies against the glutamylated peptide was >1:512,000. These antibodies are noted as “anti-glu”.
# To measure activity, recombinant human TTLL4 catalytic domain (composed of residues 561-1199) was produced in E. coli and purified via nickel-affinity and size exclusion column (Superdex 200) chromatography. Similarly, the glutamate-glutamylation substrate Nap2 (gene from Xenopus tropicalis) was produced in E. coli and purified via nickel-affinity size exclusion column (Superdex 200) chromatography. […] Intensity measurements were quantified with the Microar-ray Profile plugin for FIJI/ImageJ and analyzed with a 4-parameter model in Graphpad Prism v9.
# [2] = tested on: OCI-AML3 human cell line (degron-inducible NPM1c); test: NPM1c degradation in OCI-AML3 NPM1c-degron cells, glutamate-glutamylation by Western blot; format: cell-based
# Description: FIGS. 3A and 3B illustrate that TTLL4 catalyzes NPM1 and NPM1c glutamate-glutamylation. FIG. 3A is a Western blot of an AML3-NPM1c-degron cell line with a doxycycline (DOX)-inducible TTLL4 shRNA knockdown. Scrambled shRNA or TTLL4 shRNA cells were treated +/−DOX, resulting in loss of glutamate-glutamylation on both NPM1c-degron and NPM1 wild type proteins (top gel, +DOX). FIG. 3B is a summary of a qRT-PCR analysis of shTTLL4 cells treated with DOX.
# A doxycycline-inducible TTLL4 shRNA was introduced to this cell line. TTLL4kd eliminated NPM1c glutamate-glutamylation and reduced cellular proliferation (FIGS. 3A, 3B, and 4A). In addition, CRISPR-Cas9 mediated knockout of TTLL4 in OCI-AML3 cells reduced colony formation in methylcellulose (FIG. 4B, methylcellulose colony forming assays are used to detect cell proliferation and hematopoietic/progenitor activity) and increased apoptosis (FIG. 4C).
SMILES,IC50 [1] [µM],glutamate-glutamylation of the NPM1 wt protein after degradation of NPM1c [2]
COc1ccc(-c2cc3c(SCC(=O)Nc4c(C)cc(C)cc4C)nccn3n2)cc1 [Candidate 1],9,–
O=C(Cn1c(=O)c(F)cn(C2CCCO2)c1=O)N1N=C(c2ccc(Cl)cc2)CC1c1ccco1 (stereo not drawn) [Candidate 2],40,–
CC[C@H](C(=O)N1CCCC[C@H]1C(=O)O[C@H](CCc1ccc(OC)c(OC)c1)c1ccccc1OCC(=O)NCCCCCCOc1cccc2c1C(=O)N(C1CCC(=O)NC1=O)C2=O)c1cc(OC)c(OC)c(OC)c1 (stereo partly drawn) [dTAG-13],–,loss of glutamate-glutamylation of the NPM1 wt protein

# Reference: US20250360126A1, “TARGETING AN ENZYME REQUIRED FOR ACUTE MYELOID LEUKEMIA” (Albert Einstein College of Medicine, priority 2023, published 2025)
